Calls of active or inactive are those of the source. The calls are words filed in the database; no cut-off is given here.
Experiments:
Ascobolus = test: Antifungal activity against Ascobolus furfuraceus NRRL 6460 at 100 ug/disk by standard disk assay; assay type: functional
Candida albicans = test: Antifungal activity against Candida albicans ATCC 14053 at 80 ug /disk by standard disk assay; assay type: functional; conditions: read-out: IZ

In the case of `CC(=O)CC1(O)C(=O)c2cc3c(c4c(C)cc(O)c(c24)C1=O)OC(C)C3(C)C` (centres undefined), the inhibition at 100 µg/disc (Ascobolus) is reported as 47%.

In the case of `Cc1cc(O)c2c3c(cc4c(c13)OC(C)C4(C)C)C(=O)/C(=N\C1C(=O)c3cc4c(c5c(C)cc(O)c(c35)C1=O)OC(C)C4(C)C)C2=O` (centres undefined), the Activity (Ascobolus) is reported as “inactive”.

For `CC(C)[C@H]1CC[C@@H]2[C@]1(C)CC[C@]1(C)C3=CC[C@H]4[C@](C)(C(=O)O)[C@@H](O)[C@H](O)[C@@H](O)[C@]4(C(=O)O)[C@H]3CC[C@@]21C` [POLYTOLYPIN], the inhibition at 100 µg/disc (Ascobolus) was 47% and the zone of inhibition at 80 µg/disc (Candida albicans) was 11 mm.
